This note sets out measurements from US20240336610A1, “3CL PROTEASE SMALL-MOLECULE INHIBITOR FOR TREATING OR PREVENTING CORONAVIRUS INFECTION, AND USE THEREOF” (THE GLOBAL HEALTH DRUG DISCOVERY INSTITUTE, priority 2021, published 2024).

For one data set, the target named is SARS-CoV-2 main protease (3CLpro) (Severe acute respiratory syndrome coronavirus 2 (2019-nCoV) (SARS-CoV-2), UniProt P0DTD1). Kind of data set: Enzyme activity test. Format: biochemical. To be noted: 200 nM recombinant SARS-CoV-2 main protease, 15 μM fluorescent substrate, pH 7.3.
Regarding `COC(=O)c1cncc(C(C#N)NC(=O)[C@@H]2[C@@H]3[C@H](CN2C(=O)[C@@H](NC(C)=O)C(C)(C)C)C3(C)C)c1` (stereo in doubt) [GDI-034, 5-((1R,2S,5S)-3-((S)-2-acetamido-3,3-dimethylbutyryl)-6,6-dimethyl-3-azabicyclo[3.1.0]hexane-2-carboxamido)(cyano)methyl)methyl nicotinate], the IC50 (in general, the point on the concentration scale where inhibition reaches its midpoint) is 62 nM. For the compound `CC(=O)N[C@H](C(=O)N1C[C@H]2[C@@H]([C@H]1C(=O)NC(C#N)c1cncc(Br)c1C)C2(C)C)C(C)(C)C` (stereo partly drawn) [GDI-009, (1R,2S,5S)-3-((S)-2-acetamido-3,3-dimethylbutyryl)-N-((5-bromo-4-methylpyridin-3-yl)(cyano)methyl)-6,6-dimethyl-3-azabicycl o[3.1.0]hexane-2-carboxamide], the IC50 turned out to be 53 nM.

In the case of `CC(C)(C)[C@H](NC(=O)C(F)(F)F)C(=O)N1C[C@H]2[C@@H]([C@H]1C(=O)NC(C#N)c1cncc(C(F)(F)F)c1)C2(C)C` (stereo partly drawn) [GDI-012, (1R,2S,5S)-N-(cyano (5-(trifluoromethyl)pyridin-3-yl)methyl)-3-((S)-3,3-dimethyl-2-(2,2,2-trifluoroacetylamino)butyryl)-6,6-dimethyl-3-azabicyclo[3.1.0]hexane-2-carboxamide], the half-maximal inhibitory concentration (IC50) amounted to 24 nM. For the compound `CC1(C)[C@@H]2[C@@H](C(=O)NC(C#N)c3cncc(Br)c3)N(C(=O)OCc3ccccc3Cl)C[C@@H]21` (stereo partly drawn) [GDI-013, 2-chlorobenzyl((1R,2S,5S)-2-((5-bromopyridin-3-yl)(cyano)methyl)carbamoyl)-6,6-dimethyl-3-azabicyclo[3.1.0]hexane-3-carb oxylate], the IC50 was found to be 340 nM. As for `CC(=O)N[C@H](C(=O)N1C[C@H]2[C@@H]([C@H]1C(=O)NC(C#N)c1cncc(-c3nc(C)no3)c1)C2(C)C)C(C)(C)C` (stereo partly drawn) [GDI-015, (1R,2S,5S)-3-((S)-2-acetamido-3,3-dimethylbutyryl)-N-(cyano(5-(3-methyl-1,2,4-oxadiazol-5-yl)pyridin-3-yl)methyl)-6,6-dimethy 1-3-azabicyclo[3.1.0]hexane-2-carboxamide], the IC50 is 120 nM.

Turning to `CNC(=O)c1cncc(C(C#N)NC(=O)[C@@H]2[C@@H]3[C@H](CN2C(=O)[C@@H](NC(C)=O)C(C)(C)C)C3(C)C)c1` (stereo partly drawn) [GDI-018, (1R,2S,5S)-3-((S)-2-acetamido-3,3-dimethylbutyryl)-N(cyano(5-(methylcarbamoyl)pyridin-3-yl)methyl)-6,6-dimethyl-3-azabicycl o[3.1.0]hexane-2-carboxamide], the IC50 was 110 nM.

`CN(C)c1ccc(S(=O)(=O)N[C@H](C(=O)N2C[C@H]3[C@@H]([C@H]2C(=O)NC(C#N)c2cncc(C(F)(F)F)c2)C3(C)C)C(C)(C)C)cc1` (stereo partly drawn) [GDI-019, (1R,2S,5S)-N-(cyano(5-(trifluoromethyl)pyridin-3-yl)methyl)-3-((S)-2-((4-(dimethylamino)phenyl)sulfonamido)-3,3-dimethylbutanoyl) -6,6-dimethyl-3-azabicyclo[3.1.0]hexane-2-carboxamide]: the IC50 stood at 22 nM. On the same count and under the same terms, the figure for `CC(=O)N[C@H](C(=O)N1C[C@H]2[C@@H]([C@H]1C(=O)NC(C#N)c1cnc3[nH]ccc3c1)C2(C)C)C(C)(C)C` (stereo partly drawn) [GDI-020, (1R,2S,5S)-3-((S)-2-acetamido-3,3-dimethylbutyryl)-N(cyano(1H-pyrrole[2,3-b]pyridin-5-yl)methyl)-6,6-dimethyl-3-azabicyclo[3. 1.0]hexane-2-carboxamide] is 19 nM; for `Cc1ccc(S(=O)(=O)N[C@H](C(=O)N2C[C@H]3[C@@H]([C@H]2C(=O)NC(C#N)c2cncc(Br)c2)C3(C)C)C(C)(C)C)cc1` (stereo partly drawn) [GDI-021, (1R,2S,5S)-N-((5-bromopyridin-3-yl) (cyano)methyl)-3-((S)-3,3-dimethyl-2-((4-methylphenyl)sulfonamido)butanoyl)-6,6-dimethyl-3-azabicyclo[3.1.0]hexane-2-carboxamide] it is 19 nM; for `Cc1ccc(S(=O)(=O)N[C@H](C(=O)N2C[C@H]3[C@@H]([C@H]2C(=O)NC(C#N)c2cncc4ccccc24)C3(C)C)C(C)(C)C)cc1` (stereo partly drawn) [GDI-023, (1R,2S,5S)-N-(cyano(isoquinolin-4-yl)methyl)-3-((S)-3,3-dimethyl-2-((4-methylphenyl)sulfonamido)butanoyl)-6,6-dimethyl-3-azabic yclo[3.1.0]hexane-2-carboxamide] it is 15 nM. Still for that read-out and setting: the figure for `CC(=O)N[C@H](C(=O)N1C[C@H]2[C@@H]([C@H]1C(=O)NC(C#N)c1c[nH]c3ccccc13)C2(C)C)C(C)(C)C` (stereo partly drawn) [GDI-024, (1R,2S,5S)-3-((S)-2-acetamido-3,3-dimethylbutyryl)-N-(cyano(1H-indol-3-yl)methyl)-6,6-dimethyl-3-azabicyclo[3.1.0]hexane-2-c arboxamide] is 66300 nM; for `CC(C)(C)[C@H](NS(=O)(=O)C(F)(F)F)C(=O)N1C[C@H]2[C@@H]([C@H]1C(=O)NC(C#N)c1cncc(Br)c1)C2(C)C` (stereo partly drawn) [GDI-025, (1R,2S,5S)-N-((5-bromopyridin-3-yl) (cyano)methyl)-3-((S)-3,3-dimethyl-2-((trifluoromethyl)sulfonamido)butanoyl)-6,6-dimethyl-3-azabicyclo[3.1.0]hexane-2-carboxamide] it is 19 nM; for `CN(C)c1ccc(S(=O)(=O)N[C@H](C(=O)N2C[C@H]3[C@@H]([C@H]2C(=O)NC(C#N)c2cncc(Br)c2)C3(C)C)C(C)(C)C)cc1` (stereo partly drawn) [GDI-026, (1R,2S,5S)-N-((5-bromopyridin-3-yl) (cyano)methyl)-3-((S)-2-((4-(dimethylamino)phenyl)sulfonamido)-3,3-dimethylbutanoyl)-6,6-d imethyl-3-azabicyclo[3.1.0]hexane-2-carboxamide] it is 17 nM. With `CN(C)c1ccc(S(=O)(=O)N[C@H](C(=O)N2C[C@H]3[C@@H]([C@H]2C(=O)NC(C#N)c2cncc4ccccc24)C3(C)C)C(C)(C)C)cc1` (stereo partly drawn) [GDI-027, (1R,2S,5S)-N-(cyano(isoquinolin-4-yl)methyl)-3-((S)-2-((4-(dimethylamino)phenyl)sulfonamido)-3,3-dimethylbutyryl)-6,6-dimethyl-3-azabicyclo[3.1.0]hexane-2-carboxamide], the IC50 was determined as 7.6 nM. With `CC(=O)N[C@H](C(=O)N1C[C@H]2[C@@H]([C@H]1C(=O)NC(C#N)c1cncc(-n3cccn3)c1)C2(C)C)C(C)(C)C` (stereo partly drawn) [GDI-028, (1R,2S,5S)-N-((5-(1H-pyrazol-1-yl)pyridin-3-yl)(cyano)methyl)-3-((S)-2-acetylamino-3,3-dimethylbutanoyl)-6,6-dimethyl-3-azabi cyclo[3.1.0]hexane-2-carboxamide], the IC50 stood at 2.4 nM. Still for that read-out and setting: the result for `CC(C)(C)[C@H](NS(=O)(=O)C(F)(F)F)C(=O)N1C[C@H]2[C@@H]([C@H]1C(=O)NC(C#N)c1cncc3ccccc13)C2(C)C` (stereo partly drawn) [GDI-029, (1R,2S,5S)-N-(cyano(isoquinolin-4-yl)methyl)-3-((S)-3,3-dimethyl-2-((trifluoromethyl)sulfonamido)butanoyl)-6,6-dimethyl-3-azabic yclo[3.1.0]hexane-2-carboxamide] reads 23 nM; that for `CC(=O)N[C@H](C(=O)N1C[C@H]2[C@@H]([C@H]1C(=O)NC(C#N)c1cncc(-c3cnn(C)c3)c1)C2(C)C)C(C)(C)C` (stereo partly drawn) [GDI-030, (1R,2S,5S)-3-((S)-2-acetamido-3,3-dimethylbutyryl)-N-(cyano(5-(1-methyl-1H-pyrazol-4-yl)pyridin-3-yl)methyl)-6,6-dimethyl-3-azabicyclo[3.1.0]hexane-2-carboxamide], 18 nM. Same read-out and setting: the result for `CC(=O)N[C@H](C(=O)N1C[C@H]2[C@@H]([C@H]1C(=O)NC(C#N)c1cncc(-c3nc(C(C)C)no3)c1)C2(C)C)C(C)(C)C` (stereo partly drawn) [GDI-031, (1R,2S,5S)-3-((S)-2-acetamido-3,3-dimethylbutyryl)-N-(cyano(5-(3-isopropyl-1,2,4-oxadiazol-5-yl)pyridin-3-yl)methyl)-6,6-dimet hyl-3-azabicyclo[3.1.0]hexane-2-carboxamide] reads 100 nM. Regarding `CC(=O)N[C@H](C(=O)N1C[C@H]2[C@@H]([C@H]1C(=O)NC(C#N)c1cncc(-c3cn[nH]c3)c1)C2(C)C)C(C)(C)C` (stereo partly drawn) [GDI-032, (1R,2S,5S)-N-((5-(1H-pyrazol-4-yl)pyridin-3-yl)(cyano)methyl)-3-((S)-2-acetylamino-3,3-dimethylbutanoyl)-6,6-dimethyl-3-azabi cyclo[3.1.0]hexane-2-carboxamide], the IC50 stood at 28 nM. As for `CC(=O)N[C@H](C(=O)N1C[C@H]2[C@@H]([C@H]1C(=O)NC(C#N)c1cncc3c(F)cccc13)C2(C)C)C(C)(C)C` (stereo partly drawn) [GDI-033, (1R,2S,5S)-3-((S)-2-acetamido-3,3-dimethylbutyryl)-N-(cyano(8-fluoroisoquinolin-4-yl)methyl)-6,6-dimethyl-3-azabicyclo[3.1.0]h exane-2-carboxamide], the half-maximal inhibitory concentration (IC50) was 56 nM. On the same count and under the same terms, the figure for `CC(=O)N[C@H](C(=O)N1C[C@H]2[C@@H]([C@H]1C(=O)NC(C#N)c1cncc(-c3ccn[nH]3)c1)C2(C)C)C(C)(C)C` (stereo partly drawn) [GDI-035, (1R,2S,5S)-N-((5-(1H-pyrazol-5-yl)pyridin-3-yl)(cyano)methyl)-3-((S)-2-acetylamino-3,3-dimethylbutanoyl)-6,6-dimethyl-3-azabi cyclo[3.1.0]hexane-2-carboxamide] is 17 nM.

Test system in another data set: not listed separately
Kind of data set: Oral pharmacokinetics in rats. Format: in vivo. To be noted: rat, blood, male SD rats, 15 mg/kg. How it is done: Test Example 2: Measurement of Oral Pharmacokinetics in Rats
Male SD rats were orally administered with 15 mg/kg of the compound in the examples of the present disclosure, and blood samples were collected at 0.083, 0.25, 0.5, 1, 2, 4, and 8 hours respectively. After the samples were treated with anticoagulant EDTA-K2 and acetonitrile and centrifuged, a drug concentration analysis was conducted using LC/MS/MS.
For `CC(C)(C)[C@H](NC(=O)C(F)(F)F)C(=O)N1C[C@H]2[C@@H]([C@H]1C(=O)NC(C#N)c1cncc(C(F)(F)F)c1)C2(C)C` (stereo partly drawn) [GDI-012, (1R,2S,5S)-N-(cyano (5-(trifluoromethyl)pyridin-3-yl)methyl)-3-((S)-3,3-dimethyl-2-(2,2,2-trifluoroacetylamino)butyryl)-6,6-dimethyl-3-azabicyclo[3.1.0]hexane-2-carboxamide], the AUC(0-inf) – broadly, total exposure, with the tail of the curve extrapolated – was 7140 ng·h/mL; the AUC(0-t) (in general, the area under the concentration-time curve up to a stated or last time point) was 7080 ng·h/mL; the Cmax – broadly, the maximum level reached in the sampled fluid or tissue – came to 2120 ng/mL; the half-life (as a rule, the time in which the quantity being followed falls by half) was 1.92 h.
